In patent US11072612B2, “NLRP3 modulators” (INNATE TUMOR IMMUNITY, INC., priority 2016, dated 2021):

How the values were obtained:
Format in all cases: cell-based
[1] = molecular target: T1, hNLRP3 (Homo sapiens, UniProt Q96P20); assay: hNLRP3 agonist assay: IL-1β production in PMA-differentiated THP-1 cells (ELISA); conditions: IL-1β by ELISA
T1 construct: THP-1 cells were purchased from the American Type Culture Collection; host or cells: THP-1 cells, PMA-differentiated
Experimental: THP-1 cells were purchased from the American Type Culture Collection and sub-cultured according to instructions from the supplier. Prior to experiments, cells were cultured in RPMI 1640 containing 10% heat inactivated FBS, penicillin (100 units/ml) and streptomycin (100 μg/ml), and maintained in log phase prior to experimental setup. Prior to the experiment THP-1 were treated with PMA (Phorbol 12-myristate 13-acetate) (10 μg/ml) for 24 hours. The day of the experiment the media was removed and attaching cells were treated with trypsin for 2 minutes, cells were then collected, washed with PBS (phosphate buffer saline), spin down, resuspended in 2% heat inactivated FBS with RPMI at a concentration of 1×10^6 cells/ml, and 100 μl was plated in a 96 well plate. Cells were incubated with compounds for 4 hours. Cell free supernatant was collected and the production of IL-1β was evaluated by ELISA. Compounds were dissolved in dimethyl sulfoxide (DMSO) and added to the culture medium to achieve desired concentration (e.g. 100, 30, 10, 3, 1, 0.3 or 0.1 μM). A vehicle only control was run concurrently with each experiment. Final DMSO concentration was 1%.

[2] = molecular target: T2, TLR8 (Homo sapiens, UniProt Q9NR97); assay: TLR8 EC50 assay
T2 sequence (Q9NR97 27-1041): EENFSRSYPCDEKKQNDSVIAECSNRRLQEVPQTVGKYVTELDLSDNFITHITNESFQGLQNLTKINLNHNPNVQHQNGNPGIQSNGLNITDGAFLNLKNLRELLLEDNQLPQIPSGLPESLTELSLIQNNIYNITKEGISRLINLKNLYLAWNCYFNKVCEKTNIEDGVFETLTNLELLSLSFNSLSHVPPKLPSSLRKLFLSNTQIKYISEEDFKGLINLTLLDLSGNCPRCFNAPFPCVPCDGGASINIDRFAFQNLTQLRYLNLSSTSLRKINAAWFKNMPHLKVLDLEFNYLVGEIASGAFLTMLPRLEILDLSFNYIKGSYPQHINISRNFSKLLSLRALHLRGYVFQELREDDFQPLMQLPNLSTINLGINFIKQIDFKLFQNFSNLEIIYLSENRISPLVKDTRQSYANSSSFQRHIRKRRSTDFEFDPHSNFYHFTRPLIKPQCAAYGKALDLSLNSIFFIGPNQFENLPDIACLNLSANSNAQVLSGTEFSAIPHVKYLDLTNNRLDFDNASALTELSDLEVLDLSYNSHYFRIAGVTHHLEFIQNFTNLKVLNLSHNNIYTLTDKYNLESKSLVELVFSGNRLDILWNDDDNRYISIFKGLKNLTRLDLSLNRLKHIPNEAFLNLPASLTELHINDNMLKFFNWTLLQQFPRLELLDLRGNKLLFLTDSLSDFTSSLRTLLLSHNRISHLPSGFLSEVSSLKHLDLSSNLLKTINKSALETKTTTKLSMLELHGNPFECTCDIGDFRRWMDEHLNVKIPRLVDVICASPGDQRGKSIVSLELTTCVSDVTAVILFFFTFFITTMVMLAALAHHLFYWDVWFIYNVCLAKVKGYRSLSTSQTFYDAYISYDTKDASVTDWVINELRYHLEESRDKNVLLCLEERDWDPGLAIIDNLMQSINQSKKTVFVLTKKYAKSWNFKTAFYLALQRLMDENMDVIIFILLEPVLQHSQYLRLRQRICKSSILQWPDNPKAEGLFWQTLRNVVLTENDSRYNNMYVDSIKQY

[3] = molecular target: T3, TLR7 (Homo sapiens, UniProt Q9NYK1); assay: TLR7 EC50 assay
T3 sequence (Q9NYK1 27-1049): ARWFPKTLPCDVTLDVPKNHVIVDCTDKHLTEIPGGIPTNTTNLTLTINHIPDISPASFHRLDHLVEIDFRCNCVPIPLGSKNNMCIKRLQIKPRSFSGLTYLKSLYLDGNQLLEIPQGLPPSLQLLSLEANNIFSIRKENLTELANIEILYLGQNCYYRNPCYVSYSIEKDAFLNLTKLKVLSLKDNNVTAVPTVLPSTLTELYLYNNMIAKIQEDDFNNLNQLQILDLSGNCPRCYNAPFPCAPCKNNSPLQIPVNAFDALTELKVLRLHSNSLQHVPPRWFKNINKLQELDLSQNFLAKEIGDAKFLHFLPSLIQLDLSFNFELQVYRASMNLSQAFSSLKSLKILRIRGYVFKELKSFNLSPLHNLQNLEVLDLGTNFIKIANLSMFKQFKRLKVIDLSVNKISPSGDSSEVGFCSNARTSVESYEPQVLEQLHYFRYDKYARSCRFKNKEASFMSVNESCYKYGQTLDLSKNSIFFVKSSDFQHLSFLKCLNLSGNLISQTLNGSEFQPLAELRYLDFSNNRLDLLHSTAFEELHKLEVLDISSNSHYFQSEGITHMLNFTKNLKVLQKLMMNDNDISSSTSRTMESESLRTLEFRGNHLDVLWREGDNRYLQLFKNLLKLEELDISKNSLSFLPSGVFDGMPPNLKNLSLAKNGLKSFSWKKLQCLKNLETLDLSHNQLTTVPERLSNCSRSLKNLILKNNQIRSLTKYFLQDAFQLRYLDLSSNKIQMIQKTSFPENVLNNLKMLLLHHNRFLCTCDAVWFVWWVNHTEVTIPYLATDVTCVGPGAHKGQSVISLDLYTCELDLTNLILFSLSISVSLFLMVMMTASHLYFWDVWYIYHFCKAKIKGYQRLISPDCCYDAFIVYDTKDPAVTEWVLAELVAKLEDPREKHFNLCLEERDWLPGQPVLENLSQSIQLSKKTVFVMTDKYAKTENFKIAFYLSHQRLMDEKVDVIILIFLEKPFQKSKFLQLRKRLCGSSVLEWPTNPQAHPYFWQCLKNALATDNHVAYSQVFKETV

T1 sequence (Q96P20 whole entry): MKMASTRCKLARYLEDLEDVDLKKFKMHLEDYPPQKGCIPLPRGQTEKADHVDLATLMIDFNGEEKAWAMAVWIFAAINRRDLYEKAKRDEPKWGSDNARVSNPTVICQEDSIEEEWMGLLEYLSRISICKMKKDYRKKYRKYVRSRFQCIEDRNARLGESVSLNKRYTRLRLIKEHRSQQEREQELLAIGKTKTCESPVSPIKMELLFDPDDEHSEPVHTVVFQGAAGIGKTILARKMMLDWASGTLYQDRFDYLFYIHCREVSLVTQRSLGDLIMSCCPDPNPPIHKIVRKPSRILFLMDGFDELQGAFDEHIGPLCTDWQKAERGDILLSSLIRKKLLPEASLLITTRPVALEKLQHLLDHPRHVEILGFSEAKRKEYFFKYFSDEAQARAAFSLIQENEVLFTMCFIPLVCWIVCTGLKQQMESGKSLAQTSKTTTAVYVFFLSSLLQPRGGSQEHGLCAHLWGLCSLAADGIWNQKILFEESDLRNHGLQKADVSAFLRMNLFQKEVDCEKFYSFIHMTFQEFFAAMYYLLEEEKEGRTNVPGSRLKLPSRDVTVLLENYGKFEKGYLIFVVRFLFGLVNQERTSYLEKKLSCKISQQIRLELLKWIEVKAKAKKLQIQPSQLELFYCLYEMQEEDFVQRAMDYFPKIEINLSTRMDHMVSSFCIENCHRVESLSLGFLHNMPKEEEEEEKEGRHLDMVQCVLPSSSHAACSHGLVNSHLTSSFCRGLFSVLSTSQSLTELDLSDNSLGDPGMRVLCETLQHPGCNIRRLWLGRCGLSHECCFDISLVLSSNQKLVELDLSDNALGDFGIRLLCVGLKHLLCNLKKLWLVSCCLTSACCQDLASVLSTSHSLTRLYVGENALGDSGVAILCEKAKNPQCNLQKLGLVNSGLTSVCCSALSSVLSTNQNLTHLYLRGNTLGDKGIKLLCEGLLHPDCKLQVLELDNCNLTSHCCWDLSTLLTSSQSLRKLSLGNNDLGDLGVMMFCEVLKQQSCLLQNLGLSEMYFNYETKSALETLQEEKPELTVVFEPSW

| EC50 ([1]; Table 1, 4 hours) | EC50 ([2]; Table 1) | EC50 ([3]; Table 1) | EC50 ([1]; Table 2, 4 hours) | EC50 ([2]; Table 2) | EC50 ([3]; Table 2) | SMILES |
| --- | --- | --- | --- | --- | --- | --- |
| 20 to 100 µM | 20 to 100 µM | 20 to 100 µM |  |  |  | Nc1nc2ccccc2c2[nH]c(CCCO)nc12 [Compound 101, 3-[4-amino-1H-imidazo[4,5-c]quinolin-2-yl]propan-1-ol] |
|  |  |  | ≤ 1 µM | > 100 µM | > 100 µM | Cn1c(CCCO)nc2c(N)nc3cc(-c4cc[nH]n4)ccc3c21 [Compound 107] |
|  |  |  | ≤ 1 µM | > 100 µM | > 100 µM | Cn1c(CCCO)nc2c(N)nc3cc(-n4cccn4)ccc3c21 [Compound 108] |
|  |  |  | ≤ 1 µM |  |  | Nc1nc2cc(-n3cccn3)ccc2c2[nH]c(CN3CC4COCC4C3)nc12 (stereo not shown) [Compound 109] |
|  |  |  | 1 to 20 µM | > 100 µM | > 100 µM | CC(C)(C)OC(=O)NC1CCC(c2nc3c(N)nc4cc(Br)ccc4c3[nH]2)CC1 (stereo not shown) [Compound 110] |
|  |  |  | 1 to 20 µM | 20 to 100 µM | > 100 µM | Cc1ccc2c(c1)nc(N)c1nc(CCCO)[nH]c12 [Compound 111] |
|  |  |  | 1 to 20 µM | > 100 µM | > 100 µM | Cn1c(CCCO)nc2c3ccc(-n4cccn4)cc3nc(N)c21 [Compound 113] |
|  |  |  | 1 to 20 µM | > 100 µM | > 100 µM | CS(=O)(=O)N1CCC(c2nc3c(N)nc4cc(-n5cccn5)ccc4c3[nH]2)CC1 [Compound 114] |
|  |  |  | 1 to 20 µM | > 100 µM | > 100 µM | Nc1nc2cc(N3CCNC3=O)ccc2c2[nH]c(CCCO)nc12 [Compound 115] |
|  |  |  | 1 to 20 µM |  |  | Nc1nc2cc(Br)ccc2c2[nH]c(C3CCC(O)CC3)nc12 (stereo not shown) [Compound 116] |
|  |  |  | 1 to 20 µM | > 100 µM | > 100 µM | CC(C(=O)O)c1ccc2c(c1)nc(N)c1nc(CCCO)[nH]c12 (stereo not shown) [Compound 117] |
|  |  |  | 1 to 20 µM | > 100 µM | > 100 µM | Nc1nc2cc(Br)c(F)cc2c2[nH]c(CCCO)nc12 [Compound 118] |
|  |  |  | 1 to 20 µM | > 100 µM | > 100 µM | CC(=O)c1ccc2c(c1)nc(N)c1nc(CCCO)[nH]c12 [Compound 119] |
|  |  |  | 1 to 20 µM | > 100 µM | > 100 µM | CC(C(N)=O)c1ccc2c(c1)nc(N)c1nc(CCCO)[nH]c12 (stereo not shown) [Compound 120] |
|  |  |  | 1 to 20 µM | > 100 µM | > 100 µM | Nc1nc2cc(CC(=O)O)ccc2c2[nH]c(CCCO)nc12 [Compound 121] |
|  |  |  | 1 to 20 µM | > 100 µM | > 100 µM | Nc1nc2cc(Br)ccc2c2[nH]c([C@H]3CC[C@@H](O)CC3)nc12 [Compound 122] |
|  |  |  | 1 to 20 µM | > 100 µM | > 100 µM | CN(CCCc1nc2c(N)nc3cc(-c4cncnc4)ccc3c2[nH]1)C(=O)OC(C)(C)C [Compound 123] |
|  |  |  | 1 to 20 µM | > 100 µM | > 100 µM | COc1ccc2c(c1)nc(N)c1nc(CCCO)[nH]c12 [Compound 124] |
|  |  |  | 1 to 20 µM | > 100 µM | > 100 µM | Nc1nc2cc(Br)ccc2c2[nH]c([C@H]3CC[C@H](O)CC3)nc12 [Compound 125] |

| EC50 ([1]; Table 1, 4 hours) | EC50 ([2]; Table 1) | EC50 ([3]; Table 1) | EC50 ([1]; Table 2, 4 hours) | EC50 ([2]; Table 2) | EC50 ([3]; Table 2) | SMILES |
| --- | --- | --- | --- | --- | --- | --- |
|  |  |  | 1 to 20 µM | > 100 µM | > 100 µM | Nc1nc2cc(Cl)c(Cl)cc2c2[nH]c(CCCO)nc12 [Compound 126] |
|  |  |  | 20 to 100 µM | > 100 µM | 20 to 100 µM | Nc1nc2cc(C(F)(F)F)ccc2c2[nH]c(CCCO)nc12 [Compound 127] |
|  |  |  | 20 to 100 µM | 20 to 100 µM | > 100 µM | Cc1cc2nc(N)c3nc(CCCO)[nH]c3c2cc1F [Compound 128] |
|  |  |  | 20 to 100 µM | > 100 µM | > 100 µM | Nc1nc2ccccc2c2[nH]c(C3COC3)nc12 [Compound 129] |
|  |  |  | 20 to 100 µM | > 100 µM | > 100 µM | Cn1c(CCCO)nc2c(N)nc3ccccc3c21 [Compound 130] |
|  |  |  | 20 to 100 µM | 20 to 100 µM | > 100 µM | Nc1nc2cc(Br)ccc2c2[nH]c(C3CCC(N)CC3)nc12 (stereo not shown) [Compound 131] |
|  |  |  | 20 to 100 µM | > 100 µM | > 100 µM | Nc1nc2ccccc2c2[nH]c([C@H]3C[C@@H](O)C3)nc12 [Compound 132] |
|  |  |  | 20 to 100 µM | > 100 µM | > 100 µM | Nc1nc2ccccc2c2[nH]c([C@H]3C[C@H](O)C3)nc12 [Compound 133] |
|  |  |  | 20 to 100 µM | > 100 µM | > 100 µM | Nc1nc2ccccc2c2[nH]c([C@H]3CC[C@@H](O)CC3)nc12 [Compound 134] |
|  |  |  | 20 to 100 µM | > 100 µM | > 100 µM | Nc1nc2ccccc2c2[nH]c([C@H]3CC[C@H](O)CC3)nc12 [Compound 135] |
|  |  |  | 20 to 100 µM | > 100 µM | > 100 µM | Nc1nc2cc(F)c(F)cc2c2[nH]c(CCCO)nc12 [Compound 136] |
|  |  |  | 20 to 100 µM | > 100 µM | > 100 µM | CN1CCC[C@H](c2nc3c(N)nc4ccccc4c3[nH]2)C1 [Compound 138] |
|  |  |  | 20 to 100 µM | > 100 µM | > 100 µM | CN1CCC[C@@H](c2nc3c(N)nc4ccccc4c3[nH]2)C1 [Compound 139] |
|  |  |  | 1 to 20 µM | > 100 µM | > 100 µM | COC(=O)CCCn1c(CCCO)nc2c(N)nc3cc(Br)ccc3c21 [Compound 141] |
|  |  |  | 1 to 20 µM | > 100 µM | > 100 µM | COC(=O)CCn1c(CCCO)nc2c(N)nc3cc(Br)ccc3c21 [Compound 142] |
|  |  |  | > 100 µM |  | > 100 µM | Nc1nc2cc(C3CCNC3)ccc2c2[nH]c(CCCO)nc12 (stereo not shown) [Compound 197, 3-(4-amino-7-pyrrolidin-3-yl-1H-imidazo[4,5-c]quinolin-2-yl)propan-1-ol] |
|  |  |  | > 100 µM |  | > 100 µM | Nc1nc2cc(C3CCNCC3)ccc2c2[nH]c(CCCO)nc12 [Compound 198, 3-(4-amino-7-piperidin-4-yl-1H-imidazo[4,5-c]quinolin-2-yl)propan-1-ol] |
|  |  |  | 1 to 20 µM |  |  | Nc1nc2cc(-c3cccs3)ccc2c2[nH]c(CCCOCc3ccccc3)nc12 [Compound 243] |
